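Where inhibition never reached the appropriate level, the endpoint shown equals the highest concentration tested. Otherwise, values were interpolated linearly from a five-concentration, 48-hour dose response in 96-well plates. TGI: total growth inhibition.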

Among the test systems are HOP-92 NSCLC; EKVX NSCLC; UACC-257 melanoma; HCT-15 colon; SN12C renal; LOX IMVI melanoma; OVCAR-4 ovarian; SF-539 CNS; TK-10 renal; SNB-19 CNS; NCI-H226 lung; HT29 colon.
Common to all, as to experiment: NCI tumour cell line growth inhibition, 48 h

On to `O=C(ON=c1c2ccccc2ccc2ccccc12)c1cc([N+](=O)[O-])cc([N+](=O)[O-])c1`, for which the TGI in the experiment on HOP-92 NSCLC, in the experiment on EKVX NSCLC, in the experiment on UACC-257 melanoma, in the experiment on HCT-15 colon, in the experiment on SN12C renal and in the experiment on LOX IMVI melanoma was over 100 µM each time. Moreover, the TGI in the experiment with OVCAR-4 ovarian, in the experiment with SF-539 CNS, in the experiment with TK-10 renal, with SNB-19 CNS, with NCI-H226 lung and in the experiment with HT29 colon was over 100 µM throughout.

On to `Cc1ccc2nc3c(C(=O)NCCN(C)C)cccc3cc2c1`, for which the TGI with HOP-92 NSCLC is 5.08 µM; with EKVX NSCLC, 2.78 µM; in the experiment with UACC-257 melanoma, 4.56 µM; with HCT-15 colon, 4.91 µM; with SN12C renal, 7.06 µM; with LOX IMVI melanoma, 6.4 µM. Also, the TGI was found to be 10.1 µM in the experiment with SF-539 CNS, 6.34 µM in the experiment on SNB-19 CNS, 3.6 µM in the experiment on NCI-H226 lung and 4.79 µM with HT29 colon.

Take `CCOC(=O)c1ccc(N=C2SC(=S)N(c3ccc(F)cc3)C2=Nc2ccc(C(=O)OCC)cc2)cc1`: the TGI in the experiment on HOP-92 NSCLC was 26 µM; in the experiment on EKVX NSCLC, 63.9 µM; in the experiment with UACC-257 melanoma, 37.4 µM; with HCT-15 colon, 21.4 µM; with SN12C renal, 33.6 µM; in the experiment on LOX IMVI melanoma, 17.9 µM. The TGI in the experiment on OVCAR-4 ovarian is 33.4 µM; in the experiment on SF-539 CNS, 42.7 µM; in the experiment on TK-10 renal, 36.6 µM; with SNB-19 CNS it was over 100 µM; with NCI-H226 lung, 43.1 µM; in the experiment with HT29 colon, 51.6 µM.

For the compound `Cc1c2c(c(C)c3c[n+](C)ccc13)Oc1ccccc1O2`, the TGI in the experiment on HOP-92 NSCLC was 99.8 µM; in the experiment with EKVX NSCLC, over 100 µM; with UACC-257 melanoma it was 25.9 µM; with HCT-15 colon, over 100 µM; with SN12C renal, over 42.4 µM; with LOX IMVI melanoma it was over 71.1 µM. Also, the TGI in the experiment on OVCAR-4 ovarian was 28.2 µM; with SF-539 CNS, 22.4 µM; with TK-10 renal, over 100 µM; in the experiment on SNB-19 CNS, 12.7 µM; in the experiment on NCI-H226 lung, over 43.8 µM; with HT29 colon, 68.2 µM.

On to `NS(=O)(=O)c1nnc(NC(=O)CCC(=O)O)s1`, for which the TGI with HOP-92 NSCLC, in the experiment on EKVX NSCLC, with UACC-257 melanoma, with HCT-15 colon, in the experiment on SN12C renal and in the experiment on LOX IMVI melanoma was over 100 µM in each case. Further, the TGI in the experiment on OVCAR-4 ovarian, with SF-539 CNS, with TK-10 renal, in the experiment with SNB-19 CNS, in the experiment with NCI-H226 lung and in the experiment with HT29 colon was over 100 µM throughout.

In the case of `N#CC12COC3(CCCCC3C1(C#N)C#N)OC2=N` (stereo not drawn), the TGI in the experiment on HOP-92 NSCLC stood at 18.5 µM; in the experiment on EKVX NSCLC it was 48.8 µM; in the experiment on UACC-257 melanoma, 34.1 µM; in the experiment on SN12C renal, 24.8 µM; in the experiment with LOX IMVI melanoma, 30.3 µM; in the experiment on SF-539 CNS, 27.5 µM. The TGI with TK-10 renal worked out at 31.6 µM; with SNB-19 CNS, 36 µM; in the experiment on NCI-H226 lung, 71.2 µM; in the experiment with HT29 colon it was 26.1 µM.

In the case of `O=C(NC(=O)c1cn(CCN2CCNCC2)c(=O)[nH]c1=O)OCc1ccccc1`, the TGI in the experiment on HOP-92 NSCLC, in the experiment on EKVX NSCLC, in the experiment with HCT-15 colon, with SN12C renal, in the experiment on LOX IMVI melanoma and with OVCAR-4 ovarian was over 100 µM throughout. In addition, the TGI with SF-539 CNS, with NCI-H226 lung and with HT29 colon was over 100 µM each time.

For the compound `C=CCN1CCC(OC(=O)C(O)(/C=C\CC)C2CCCC2)CC1` (stereo not drawn), the TGI with HOP-92 NSCLC, with EKVX NSCLC, in the experiment on UACC-257 melanoma, in the experiment on HCT-15 colon, in the experiment on SN12C renal and with LOX IMVI melanoma was over 100 µM each time. In addition, the TGI with OVCAR-4 ovarian, with SF-539 CNS, with TK-10 renal, in the experiment on SNB-19 CNS, in the experiment on NCI-H226 lung and with HT29 colon was over 100 µM throughout.

As for `CC(/C=C/c1ncccc1OCCCCCC(=O)O)=N\NC1=NCCN1`, the TGI in the experiment on HOP-92 NSCLC, with EKVX NSCLC, with HCT-15 colon, with SN12C renal, with LOX IMVI melanoma and in the experiment with OVCAR-4 ovarian was over 100 µM in each case. Moreover, the TGI with SF-539 CNS, in the experiment on TK-10 renal, with SNB-19 CNS, in the experiment with NCI-H226 lung and in the experiment with HT29 colon was over 100 µM throughout.

With `COCCO`, the TGI with HOP-92 NSCLC, in the experiment on EKVX NSCLC, in the experiment with UACC-257 melanoma, in the experiment with HCT-15 colon, in the experiment on SN12C renal and with LOX IMVI melanoma was over 100 µM throughout. The TGI in the experiment with OVCAR-4 ovarian, in the experiment on SF-539 CNS, with SNB-19 CNS, in the experiment on NCI-H226 lung and in the experiment with HT29 colon was over 100 µM throughout.

For the compound `Nc1[nH]c(=O)nc2sc3c(c12)CCCC3`, the TGI with HOP-92 NSCLC, in the experiment on EKVX NSCLC, in the experiment with UACC-257 melanoma, with HCT-15 colon, with SN12C renal and with OVCAR-4 ovarian was over 100 µM throughout. Also, the TGI in the experiment with SF-539 CNS was over 100 µM; in the experiment on TK-10 renal it was over 100 µM; with SNB-19 CNS it was over 100 µM; in the experiment on NCI-H226 lung, 88.8 µM; in the experiment on HT29 colon it was over 100 µM.

On to `C#CCNC(=O)CCC(N)C(=O)O` (stereo not drawn), for which the TGI in the experiment on HOP-92 NSCLC, with EKVX NSCLC, with UACC-257 melanoma, in the experiment on HCT-15 colon, in the experiment with SN12C renal and with LOX IMVI melanoma was over 100 µM in each case. For the same compound, the TGI in the experiment on OVCAR-4 ovarian, in the experiment on SF-539 CNS, in the experiment on SNB-19 CNS, with NCI-H226 lung and in the experiment on HT29 colon was over 100 µM each time.
